Experimental data as given in ChEMBL document CHEMBL4385643, “Design of a brain-penetrant CDK4/6 inhibitor for glioblastoma” (Bioorg Med Chem Lett, 2019).

Assays:
[1] = molecular target: Activin receptor type-2B (Homo sapiens) (UniProt Q13705); experiment: Inhibition of tracer 178 binding to recombinant human GST-tagged ACVR2B catalytic domain (185 to 488 residues) expressed in baculovirus at 0.1 uM measured after 60 mins by Lanthascreen assay
[2] = molecular target: Activin receptor type-1 (Homo sapiens) (UniProt Q04771); experiment: Inhibition of tracer 236 binding to recombinant human GST-tagged ALK2 catalytic domain (145 to 509 residues) expressed in baculovirus at 0.1 uM measured after 60 mins by Lanthascreen assay relative to control
[3] = molecular target: Bone morphogenetic protein receptor type-1A (Homo sapiens) (UniProt P36894); experiment: Inhibition of tracer 178 binding to recombinant human GST-tagged BMPR1A catalytic domain (187 to 532 amino acids) expressed insect cell expression system at 0.1 uM measured after 60 mins by Lanthascreen assay relative to control
Chain of Bone morphogenetic protein receptor type-1A (Homo sapiens) (P36894 whole entry, the tested form may be a part): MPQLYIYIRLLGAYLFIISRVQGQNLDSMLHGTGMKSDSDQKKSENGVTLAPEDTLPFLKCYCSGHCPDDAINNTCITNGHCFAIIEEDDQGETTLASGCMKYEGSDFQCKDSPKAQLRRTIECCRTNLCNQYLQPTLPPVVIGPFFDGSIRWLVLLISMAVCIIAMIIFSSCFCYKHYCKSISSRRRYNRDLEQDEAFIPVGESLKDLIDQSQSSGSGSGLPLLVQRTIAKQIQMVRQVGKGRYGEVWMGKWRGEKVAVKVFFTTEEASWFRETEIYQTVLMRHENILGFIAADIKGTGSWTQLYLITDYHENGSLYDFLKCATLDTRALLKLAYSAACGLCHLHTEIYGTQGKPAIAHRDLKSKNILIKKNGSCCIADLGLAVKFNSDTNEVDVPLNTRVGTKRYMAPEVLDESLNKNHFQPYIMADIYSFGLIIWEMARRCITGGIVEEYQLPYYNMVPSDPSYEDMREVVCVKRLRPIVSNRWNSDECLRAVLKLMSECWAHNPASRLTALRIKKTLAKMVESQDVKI

[4] = molecular target: Macrophage colony-stimulating factor 1 receptor (Homo sapiens) (UniProt P07333); experiment: Inhibition of recombinant human His-tagged CSF1R catalytic domain (538 to 910 residues) expressed in Baculovirus expression system at 0.1 uM using tyrosine-1 peptide as substrate incubated for 60 mins by Z'-LYTE assay relative to control
Chain of Macrophage colony-stimulating factor 1 receptor (Homo sapiens) (P07333 whole entry, the tested form may be a part): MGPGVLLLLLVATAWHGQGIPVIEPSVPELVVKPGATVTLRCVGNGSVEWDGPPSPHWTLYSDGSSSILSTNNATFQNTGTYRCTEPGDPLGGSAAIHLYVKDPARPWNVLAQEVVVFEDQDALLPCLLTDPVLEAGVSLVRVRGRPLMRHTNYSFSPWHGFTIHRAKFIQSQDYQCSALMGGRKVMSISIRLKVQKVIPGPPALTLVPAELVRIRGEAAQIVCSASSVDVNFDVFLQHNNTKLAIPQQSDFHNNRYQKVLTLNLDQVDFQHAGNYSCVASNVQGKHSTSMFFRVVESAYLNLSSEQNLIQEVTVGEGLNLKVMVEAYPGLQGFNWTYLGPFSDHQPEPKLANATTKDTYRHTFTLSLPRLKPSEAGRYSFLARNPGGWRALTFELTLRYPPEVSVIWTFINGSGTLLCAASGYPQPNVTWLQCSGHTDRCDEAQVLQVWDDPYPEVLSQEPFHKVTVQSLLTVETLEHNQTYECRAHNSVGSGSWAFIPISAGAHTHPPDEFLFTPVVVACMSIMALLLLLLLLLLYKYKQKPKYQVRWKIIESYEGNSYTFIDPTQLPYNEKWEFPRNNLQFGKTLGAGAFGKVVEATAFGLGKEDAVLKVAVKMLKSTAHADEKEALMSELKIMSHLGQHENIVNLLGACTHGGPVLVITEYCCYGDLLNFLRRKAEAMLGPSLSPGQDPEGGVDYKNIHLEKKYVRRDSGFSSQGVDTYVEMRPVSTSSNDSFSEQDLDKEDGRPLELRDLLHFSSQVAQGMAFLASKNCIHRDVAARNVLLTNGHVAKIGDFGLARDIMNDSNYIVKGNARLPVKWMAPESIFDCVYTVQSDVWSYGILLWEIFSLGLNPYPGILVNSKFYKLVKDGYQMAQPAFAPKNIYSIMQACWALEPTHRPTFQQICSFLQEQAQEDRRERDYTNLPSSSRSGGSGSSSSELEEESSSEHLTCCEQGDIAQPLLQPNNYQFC

[5] = molecular target: Calcium/calmodulin-dependent protein kinase type 1D (Homo sapiens) (UniProt Q8IU85); experiment: Inhibition of recombinant full length human His-tagged CAMK1delta expressed in baculovirus expression system at 0.1 uM using serine/threonine-25 peptide as substrate incubated for 60 mins by Z'-LYTE assay relative to control
[6] = molecular target: Calcium/calmodulin-dependent protein kinase type IV (Homo sapiens) (UniProt Q16566); experiment: Inhibition of recombinant full length human full length GST-tagged CAMK4 expressed in Escherichia coli expression system at 0.1 uM using serine/threonine-13 peptide as substrate incubated for 60 mins by Z'-LYTE assay relative to control
Chain of Calcium/calmodulin-dependent protein kinase type IV (Homo sapiens) (Q16566 whole entry, the tested form may be a part): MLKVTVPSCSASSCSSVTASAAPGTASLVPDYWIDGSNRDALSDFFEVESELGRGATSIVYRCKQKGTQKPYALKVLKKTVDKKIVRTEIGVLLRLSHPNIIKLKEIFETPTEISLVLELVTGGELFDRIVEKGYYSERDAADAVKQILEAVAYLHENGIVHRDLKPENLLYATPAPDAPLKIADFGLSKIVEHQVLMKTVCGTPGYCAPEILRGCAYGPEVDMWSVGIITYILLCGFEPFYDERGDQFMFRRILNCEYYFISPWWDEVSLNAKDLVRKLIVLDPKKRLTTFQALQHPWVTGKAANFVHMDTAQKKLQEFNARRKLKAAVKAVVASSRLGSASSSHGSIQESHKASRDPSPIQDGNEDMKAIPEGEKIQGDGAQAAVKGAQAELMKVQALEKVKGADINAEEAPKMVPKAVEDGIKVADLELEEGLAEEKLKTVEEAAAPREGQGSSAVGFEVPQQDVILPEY

[7] = molecular target: Epithelial discoidin domain-containing receptor 1 (Homo sapiens) (UniProt Q08345); experiment: Inhibition of tracer 178 binding to recombinant human GST-tagged DDR1 catalytic domain (440 to 876 residues) expressed in baculovirus expression system at 0.1 uM measured after 60 mins by Lanthascreen assay relative to control
[8] = molecular target: Serine/threonine-protein kinase 17A (Homo sapiens) (UniProt Q9UEE5); experiment: Inhibition of tracer 236 binding to recombinant full length human GST-tagged DRAK1 expressed in baculovirus expression system at 0.1 uM measured after 60 mins by Lanthascreen assay relative to control
[9] = molecular target: Receptor tyrosine-protein kinase erbB-2 (Homo sapiens) (UniProt P04626); experiment: Inhibition of recombinant human His-tagged ERBB2 catalytic domain (676 to 1255 residues) expressed in baculovirus expression system at 0.1 uM using tyrosine-6 peptide as substrate incubated for 60 mins by Z'-LYTE assay relative to control
[10] = molecular target: Fibroblast growth factor receptor 1 (Homo sapiens) (UniProt P11362); experiment: Inhibition of recombinant human His-tagged FGFR1 catalytic domain (308 to 731 residues) expressed in baculovirus expression system at 0.1 uM using tyrosine-4 peptide as substrate incubated for 60 mins by Z'-LYTE assay relative to control
[11] = molecular target: Tyrosine-protein kinase Fgr (Homo sapiens) (UniProt P09769); experiment: Inhibition of recombinant full length human His-tagged FGR expressed in baculovirus expression system at 0.1 uM using tyrosine-2 peptide as substrate incubated for 60 mins by Z'-LYTE assay relative to control
Chain of Tyrosine-protein kinase Fgr (Homo sapiens) (P09769 2-529 limits assumed): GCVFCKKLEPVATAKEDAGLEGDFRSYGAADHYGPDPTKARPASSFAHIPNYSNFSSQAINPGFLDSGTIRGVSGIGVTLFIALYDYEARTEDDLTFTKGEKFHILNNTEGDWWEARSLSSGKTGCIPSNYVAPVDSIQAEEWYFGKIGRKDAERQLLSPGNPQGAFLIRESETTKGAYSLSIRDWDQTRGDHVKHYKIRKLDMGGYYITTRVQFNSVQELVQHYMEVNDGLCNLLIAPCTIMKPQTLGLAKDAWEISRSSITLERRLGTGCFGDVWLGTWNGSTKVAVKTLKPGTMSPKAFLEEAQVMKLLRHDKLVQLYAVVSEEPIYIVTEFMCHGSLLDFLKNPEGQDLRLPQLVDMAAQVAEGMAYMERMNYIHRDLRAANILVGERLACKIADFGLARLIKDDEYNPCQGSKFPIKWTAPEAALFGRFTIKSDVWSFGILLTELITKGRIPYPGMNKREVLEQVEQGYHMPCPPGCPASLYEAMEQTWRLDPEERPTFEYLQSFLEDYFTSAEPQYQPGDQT

[12] = molecular target: Inhibitor of nuclear factor kappa-B kinase subunit epsilon (Homo sapiens) (UniProt Q14164); experiment: Inhibition of recombinant full length human GST-tagged IKKepsilon expressed in baculovirus expression system at 0.1 uM using serine/threonine-11 peptide as substrate incubated for 60 mins by Z'-LYTE assay relative to control
Chain of Inhibitor of nuclear factor kappa-B kinase subunit epsilon (Homo sapiens) (Q14164 whole entry, the tested form may be a part): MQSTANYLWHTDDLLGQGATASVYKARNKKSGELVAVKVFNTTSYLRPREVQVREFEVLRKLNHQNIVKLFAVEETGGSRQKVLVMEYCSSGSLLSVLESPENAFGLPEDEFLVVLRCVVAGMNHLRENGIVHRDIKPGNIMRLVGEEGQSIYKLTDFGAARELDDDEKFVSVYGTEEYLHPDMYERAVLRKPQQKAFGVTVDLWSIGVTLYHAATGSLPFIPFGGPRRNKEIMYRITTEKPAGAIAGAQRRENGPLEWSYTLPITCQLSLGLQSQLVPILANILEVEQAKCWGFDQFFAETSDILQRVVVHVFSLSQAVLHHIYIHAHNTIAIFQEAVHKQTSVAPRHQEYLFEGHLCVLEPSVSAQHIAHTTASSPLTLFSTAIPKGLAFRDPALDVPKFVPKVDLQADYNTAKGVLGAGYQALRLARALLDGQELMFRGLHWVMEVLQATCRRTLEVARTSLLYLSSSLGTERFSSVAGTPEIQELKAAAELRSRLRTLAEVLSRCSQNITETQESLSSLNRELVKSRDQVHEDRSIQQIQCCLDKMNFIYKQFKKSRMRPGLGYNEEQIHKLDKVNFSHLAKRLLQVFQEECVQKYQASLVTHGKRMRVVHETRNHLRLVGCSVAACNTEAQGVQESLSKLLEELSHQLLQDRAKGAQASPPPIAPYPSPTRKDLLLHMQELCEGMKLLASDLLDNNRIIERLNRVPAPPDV

[13] = molecular target: Tyrosine-protein kinase JAK2 (Homo sapiens) (UniProt O60674); experiment: Inhibition of recombinant human GST-tagged JAK2 catalytic domain (809 to 1153+9 residues) expressed in baculovirus expression system at 0.1 uM using tyrosine-6 peptide as substrate incubated for 60 mins by Z'-LYTE assay relative to control
[14] = molecular target: Mitogen-activated protein kinase 8 (Homo sapiens) (UniProt P45983); experiment: Inhibition of recombinant full length human His-tagged JNK1alpha1 expressed in baculovirus expression system at 0.1 uM using serine/threonine-4 peptide as substrate incubated for 60 mins by Z'-LYTE assay relative to control
Chain of Mitogen-activated protein kinase 8 (Homo sapiens) (P45983 whole entry, the tested form may be a part): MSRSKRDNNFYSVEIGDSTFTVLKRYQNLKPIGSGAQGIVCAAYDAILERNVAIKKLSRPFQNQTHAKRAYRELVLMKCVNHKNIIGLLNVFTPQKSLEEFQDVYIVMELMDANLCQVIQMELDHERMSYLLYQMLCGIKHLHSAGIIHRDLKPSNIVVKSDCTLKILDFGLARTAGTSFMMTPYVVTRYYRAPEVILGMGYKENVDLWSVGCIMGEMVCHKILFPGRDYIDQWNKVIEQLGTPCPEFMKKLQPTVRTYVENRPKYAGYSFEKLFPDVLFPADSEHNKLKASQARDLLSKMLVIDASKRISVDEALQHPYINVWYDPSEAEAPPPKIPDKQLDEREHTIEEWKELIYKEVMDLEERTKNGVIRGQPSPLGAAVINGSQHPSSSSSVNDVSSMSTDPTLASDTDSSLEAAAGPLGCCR

[15] = molecular target: Vascular endothelial growth factor receptor 2 (Homo sapiens) (UniProt P35968); experiment: Inhibition of recombinant human His-tagged KDR (789 to 1356 residues) expressed in baculovirus expression system at 0.1 uM using tyrosine-1 peptide as substrate incubated for 60 mins by Z'-LYTE assay relative to control
Chain of Vascular endothelial growth factor receptor 2 (Homo sapiens) (P35968 whole entry, the tested form may be a part): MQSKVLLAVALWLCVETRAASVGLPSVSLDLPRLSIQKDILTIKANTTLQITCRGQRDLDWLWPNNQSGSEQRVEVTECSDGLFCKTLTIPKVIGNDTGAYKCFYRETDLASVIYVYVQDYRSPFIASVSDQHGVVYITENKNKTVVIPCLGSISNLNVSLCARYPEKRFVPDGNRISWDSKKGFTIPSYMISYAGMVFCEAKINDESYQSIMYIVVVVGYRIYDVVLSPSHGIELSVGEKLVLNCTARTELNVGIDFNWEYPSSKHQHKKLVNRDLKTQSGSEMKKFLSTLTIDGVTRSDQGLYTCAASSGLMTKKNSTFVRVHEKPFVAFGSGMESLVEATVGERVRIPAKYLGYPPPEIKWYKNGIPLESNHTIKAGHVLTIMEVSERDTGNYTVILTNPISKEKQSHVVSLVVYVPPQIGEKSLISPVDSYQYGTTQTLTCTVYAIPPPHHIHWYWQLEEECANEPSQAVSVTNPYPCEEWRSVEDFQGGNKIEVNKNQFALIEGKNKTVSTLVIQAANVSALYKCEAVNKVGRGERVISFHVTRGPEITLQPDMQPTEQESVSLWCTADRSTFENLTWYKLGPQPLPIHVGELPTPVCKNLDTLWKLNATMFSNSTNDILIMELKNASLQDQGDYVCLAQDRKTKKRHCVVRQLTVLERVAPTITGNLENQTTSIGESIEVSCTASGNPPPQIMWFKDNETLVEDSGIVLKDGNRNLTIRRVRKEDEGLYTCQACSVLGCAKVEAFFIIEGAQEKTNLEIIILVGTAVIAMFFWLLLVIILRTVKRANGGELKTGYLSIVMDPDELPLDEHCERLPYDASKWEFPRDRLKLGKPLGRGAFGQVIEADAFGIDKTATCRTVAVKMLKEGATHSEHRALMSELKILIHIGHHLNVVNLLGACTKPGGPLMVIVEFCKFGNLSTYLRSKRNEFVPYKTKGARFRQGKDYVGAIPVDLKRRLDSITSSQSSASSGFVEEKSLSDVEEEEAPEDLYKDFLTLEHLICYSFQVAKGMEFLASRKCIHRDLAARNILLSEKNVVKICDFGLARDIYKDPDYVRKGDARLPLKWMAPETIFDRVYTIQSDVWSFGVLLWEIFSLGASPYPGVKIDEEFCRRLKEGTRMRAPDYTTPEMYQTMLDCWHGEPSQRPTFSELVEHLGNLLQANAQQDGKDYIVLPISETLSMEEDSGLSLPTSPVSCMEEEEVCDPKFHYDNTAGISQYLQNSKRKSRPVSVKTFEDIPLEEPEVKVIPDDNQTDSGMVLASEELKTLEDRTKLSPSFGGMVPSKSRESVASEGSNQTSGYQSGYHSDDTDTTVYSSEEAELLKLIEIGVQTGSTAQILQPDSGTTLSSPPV

[16] = molecular target: Leukocyte tyrosine kinase receptor (Homo sapiens) (UniProt P29376); experiment: Inhibition of recombinant human GST-tagged LTK (450 to 864 residues) expressed in baculovirus expression system at 0.1 uM using tyrosine-6 peptide as substrate incubated for 60 mins by Z'-LYTE assay relative to control
[17] = molecular target: Serine/threonine-protein kinase MRCK alpha (Homo sapiens) (UniProt Q5VT25); experiment: Inhibition of recombinant human His-tagged MRCKalpha catalytic domain (1 to 473 residues) expressed in baculovirus expression system at 0.1 uM using serine/threonine-13 peptide as substrate incubated for 60 mins by Z'-LYTE assay relative to control
[18] = molecular target: Platelet-derived growth factor receptor alpha (Homo sapiens) (UniProt P16234); experiment: Inhibition of recombinant human GST-tagged PDGFRalpha (550 to 1089 residues) expressed in baculovirus expression system at 0.1 uM using tyrosine-4 peptide as substrate incubated for 60 mins by Z'-LYTE assay relative to control
[19] = molecular target: Protein kinase C alpha type (Homo sapiens) (UniProt P17252); experiment: Inhibition of recombinant human GST-tagged PKCalpha expressed in insect expression system at 0.1 uM using serine/threonine-7 peptide as substrate incubated for 60 mins by Z'-LYTE assay relative to control
[20] = molecular target: Serine/threonine-protein kinase PLK1 (Homo sapiens) (UniProt P53350); experiment: Inhibition of recombinant full length human His-tagged PLK1 expressed in baculovirus expression system at 0.1 uM using serine/threonine-16 peptide as substrate incubated for 60 mins by Z'-LYTE assay relative to control
[21] = molecular target: Serine/threonine-protein kinase PLK2 (Homo sapiens) (UniProt Q9NYY3); experiment: Inhibition of recombinant full length human GST-tagged PLK2 expressed in baculovirus expression system at 0.1 uM using serine/threonine-16 peptide as substrate incubated for 60 mins by Z'-LYTE assay relative to control
[22] = molecular target: Tyrosine-protein kinase Srms (Homo sapiens) (UniProt Q9H3Y6); experiment: Inhibition of recombinant full length human GST-tagged SRM expressed in baculovirus expression system at 0.1 uM using tyrosine-1 peptide as substrate incubated for 60 mins by Z'-LYTE assay relative to control
[23] = molecular target: High affinity nerve growth factor receptor (Homo sapiens) (UniProt P04629); experiment: Inhibition of recombinant human His-tagged TRKA catalytic domain (441 to 796 residues) expressed in baculovirus expression system at 0.1 uM using tyrosine-1 peptide as substrate incubated for 60 mins by Z'-LYTE assay relative to control

CCN1CCN(Cc2ccc(Nc3ncc(F)c(-c4cc(F)c5nc(C)n(C(C)C)c5c4)n3)nc2)CC1 [ABEMACICLIB]
inhibition [1]: 5.4% | inhibition [2]: 30.5% | inhibition [3]: -0.3% | inhibition [4]: 41.4% | inhibition [5]: 14% | inhibition [6]: 2.5% | inhibition [7]: 8.7% | inhibition [8]: 56.2% | inhibition [9]: 1.5% | inhibition [10]: -0.4% | inhibition [11]: 8.5% | inhibition [12]: 8% | inhibition [13]: 6% | inhibition [14]: 46.2% | inhibition [15]: 4.5% | inhibition [16]: 10.5% | inhibition [17]: 31.5% | inhibition [18]: 4.5% | inhibition [19]: 77.5% | inhibition [20]: 8.5% | inhibition [21]: 0.5% | inhibition [22]: 6% | inhibition [23]: 31%

CCN1CC2(C1)CN(c1ccc(Nc3ncc(F)c(-c4cnn5c4[C@H](C)CCCC5)n3)nc1)C2
inhibition [1]: 4.5% | inhibition [2]: 28% | inhibition [3]: 0.5% | inhibition [4]: 88% | inhibition [5]: 13.5% | inhibition [6]: 10% | inhibition [7]: 0% | inhibition [8]: 72% | inhibition [9]: 0% | inhibition [10]: -4% | inhibition [11]: 7% | inhibition [12]: 3.5% | inhibition [13]: 18.5% | inhibition [14]: 78% | inhibition [15]: 17.5% | inhibition [16]: 25.5% | inhibition [17]: 1% | inhibition [18]: 2.5% | inhibition [19]: 33% | inhibition [20]: 2% | inhibition [21]: 3% | inhibition [22]: 0% | inhibition [23]: 20%
